In brackets after ≈: the same amount, converted by molar mass. Like-named read-outs stand apart in the source and are kept apart here.
Experiments:
[1] = Solubility of clonazepam in glycol ethers at 25° C.; conditions: neat solvent, organic solvent or mixture, thermodynamic from solid
Experimental: 10 mg of clonazepam was weighed into glass vials used in the Pfeiffer mono-dose spray system (Pfeiffer of America, Princeton, N.J.). Four samples of each of four solvents were prepared as follows. 130-μL of each solvent was pipetted into the vial, which was then stoppered with a black chlorobutyl rubber stopper.
The vials were removed from the chamber, placed inside polyethylene centrifuge vials, and centrifuged for 2 minutes at 5000 rpm. 10 μL of liquid was then sampled from each vial, accurately weighed, and diluted with 1 mL of acetonitrile. The drug concentration was analyzed by UV using an Agilent HPLC system with no column, 10 μL injection volume, acetonitrile mobile phase, 0.3 mL/min and UV detection at 350 nm.

[2] = Drug recovery, degradation and binding to nasal sheep mucosa; assay type: in vitro ADME; conditions: sheep nasal mucosa (excised tissue) in buffer, 37° C., read-out: % recovery in the presence of nasal sheep mucosa
Experimental: (i) Drug recovery, degradation and binding to nasal sheep mucosa: The effect of drug recovery, degradation and binding to sheep nasal mucosa was determined. Briefly, a known surface area (approx. 1 cm^2) of sheep nasal mucosa was added into a glass vial containing a known concentration (10 μg/mL) of each drug prepared in the receiver fluid (10% ethanol in pH 6 buffer). The content of the vial was allowed to equilibrate at 37° C. over a period of 48 h. At 24 h intervals, a sample was removed and assayed via HPLC. The percentage of drug recovered was calculated using Equation 4: % drug recovered=(drug concentration at t=Y/drug concentration at t=Z)×100 (Equation 4)
where, Y=specific time point at 37° C. (in the presence of nasal sheep mucosa); and Z=specific time point at 37° C. (in the absence of nasal sheep mucosa).
In addition to the stability against heat degradation, the effect of drug binding or degradation in the presence of nasal sheep mucosa was also determined (Table 6).

[3] = in vivo; cited from earlier work
[4] = Solubilities of clonazepam in water-containing solvents; assay type: physicochemical; conditions: 25 °C
Experimental: The vials were stored at 25° C. for approximately 1 day. Prior to sampling, the vials were centrifuged at 5000 rpm for 2 minutes at 23° C. The results are shown below; neat solvent solubilities from Example 11 are included for reference. Increased water content decreases solubility substantially.

O=C1CN=C(c2ccccc2Cl)c2cc([N+](=O)[O-])ccc2N1 [Clonazepam, 5-(2-chlorophenyl)-1,3-dihydro-7-nitro-2H-1,4-benzodiazepin-2-one]
solubility ([1]; 1,2-dimethyxoethane): 39.3 mg/mL (≈ 124 mM)
solubility ([1]; di(ethylene glycol) diethyl ether): 19 mg/mL (≈ 60.2 mM)
solubility ([1]; di(ethylene glycol) methyl ether): 56.4 mg/mL (≈ 179 mM)
solubility ([1]; diethylene glycol monoethyl ether (DEGEE)): 41.8 mg/mL (≈ 132 mM)
recovery at 24 h, 10 μg/mL ([2]; buffer pH 5 (10% ethanol)): 97.8%
recovery at 48 h, 10 μg/mL ([2]; buffer pH 5 (10% ethanol)): 96.5%
recovery at 24 h, 10 μg/mL ([2]; buffer pH 6 (10% ethanol)): 97.5%
recovery at 48 h, 10 μg/mL ([2]; buffer pH 6 (10% ethanol)): 97.1%
recovery at 24 h, 10 μg/mL ([2]; buffer pH 7 (10% ethanol)): 99.3%
recovery at 48 h, 10 μg/mL ([2]; buffer pH 7 (10% ethanol)): 97.8%
amount excreted unchanged in the urine [3]: less than 0.5 % of a dose
excreted in the feces [3]: 9-27 % of a dose
half-life [3]: 18 to 50 h
roughly equal dose (potency equivalence) [3]: ~0.25 mg
solubility ([4]; 1,2-dimethyxoethane / pH 6.8 buffered water mixture (20:80), pH 6.8, aqueous with cosolvent or surfactant or cyclodextrin, kinetic from dmso stock, 1,2-dimethyxoethane 20% solvent, 80% pH6.8 buffered water, 25° C.): 180 µg/mL (≈ 0.57 mM)
solubility ([4]; 1,2-dimethyxoethane / pH 6.8 buffered water mixture (40:60), pH 6.8, aqueous with cosolvent or surfactant or cyclodextrin, kinetic from dmso stock, 1,2-dimethyxoethane 40% solvent, 60% pH6.8 buffered water, 25° C.): 640 µg/mL (≈ 2.03 mM)
solubility ([4]; 1,2-dimethyxoethane / pH 6.8 buffered water mixture (60:40), pH 6.8, aqueous with cosolvent or surfactant or cyclodextrin, kinetic from dmso stock, 1,2-dimethyxoethane 60% solvent, 40% pH6.8 buffered water, 25° C.): 9200 µg/mL (≈ 29.1 mM)
solubility ([4]; 1,2-dimethyxoethane / pH 6.8 buffered water mixture (80:20), pH 6.8, aqueous with cosolvent or surfactant or cyclodextrin, kinetic from dmso stock, 1,2-dimethyxoethane 80% solvent, 20% pH6.8 buffered water, 25° C.): 29600 µg/mL (≈ 93.8 mM)
solubility ([4]; 1,2-dimethyxoethane, neat solvent, organic solvent or mixture, 1,2-dimethyxoethane 100% solvent, 0% water, 25° C. (neat, from Example 11)): 39300 µg/mL (≈ 124 mM)
solubility ([4]; pH 6.8, aqueous with cosolvent or surfactant or cyclodextrin, kinetic from dmso stock, Di (ethylene glycol) methyl ether 20% solvent, 80% pH6.8 buffered water): 260 µg/mL (≈ 0.824 mM)
solubility ([4]; pH 6.8, aqueous with cosolvent or surfactant or cyclodextrin, kinetic from dmso stock, Di (ethylene glycol) methyl ether 40% solvent, 60% pH6.8 buffered water): 1000 µg/mL (≈ 3.17 mM)
solubility ([4]; pH 6.8, aqueous with cosolvent or surfactant or cyclodextrin, kinetic from dmso stock, Di (ethylene glycol) methyl ether 60% solvent, 40% pH6.8 buffered water): 2800 µg/mL (≈ 8.87 mM)
solubility ([4]; pH 6.8, aqueous with cosolvent or surfactant or cyclodextrin, kinetic from dmso stock, Di (ethylene glycol) methyl ether 80% solvent, 20% pH6.8 buffered water): 18900 µg/mL (≈ 59.9 mM)
solubility ([4]; pH 6.8, aqueous with cosolvent or surfactant or cyclodextrin, kinetic from dmso stock, Di (ethyleneglycol) diethyl ether 20% solvent, 80% pH6.8 buffered water): 310 µg/mL (≈ 0.982 mM)
solubility ([4]; pH 6.8, aqueous with cosolvent or surfactant or cyclodextrin, kinetic from dmso stock, Di (ethyleneglycol) diethyl ether 40% solvent, 60% pH6.8 buffered water): 1230 µg/mL (≈ 3.9 mM)
solubility ([4]; pH 6.8, aqueous with cosolvent or surfactant or cyclodextrin, kinetic from dmso stock, Di (ethyleneglycol) diethyl ether 60% solvent, 40% pH6.8 buffered water): 8500 µg/mL (≈ 26.9 mM)
solubility ([4]; pH 6.8, aqueous with cosolvent or surfactant or cyclodextrin, kinetic from dmso stock, Di (ethyleneglycol) diethyl ether 80% solvent, 20% pH6.8 buffered water): 38800 µg/mL (≈ 123 mM)
solubility ([4]; pH 6.8, aqueous with cosolvent or surfactant or cyclodextrin, kinetic from dmso stock, Diethylene glycol monoethyl ether 20% solvent, 80% pH6.8 buffered water): 300 µg/mL (≈ 0.95 mM)
solubility ([4]; pH 6.8, aqueous with cosolvent or surfactant or cyclodextrin, kinetic from dmso stock, Diethylene glycol monoethyl ether 40% solvent, 60% pH6.8 buffered water): 520 µg/mL (≈ 1.65 mM)
solubility ([4]; pH 6.8, aqueous with cosolvent or surfactant or cyclodextrin, kinetic from dmso stock, Diethylene glycol monoethyl ether 60% solvent, 40% pH6.8 buffered water): 4500 µg/mL (≈ 14.3 mM)
solubility ([4]; pH 6.8, aqueous with cosolvent or surfactant or cyclodextrin, kinetic from dmso stock, Diethylene glycol monoethyl ether 80% solvent, 20% pH6.8 buffered water): 21800 µg/mL (≈ 69 mM)
solubility ([4]; di(ethylene glycol) diethyl ether, neat solvent, organic solvent or mixture, Di (ethyleneglycol) diethyl ether 100% solvent, 0% water, 25° C. (neat, from Example 11)): 19000 µg/mL (≈ 60.2 mM)
solubility ([4]; di(ethylene glycol) methyl ether, neat solvent, organic solvent or mixture, Di (ethylene glycol) methyl ether 100% solvent, 0% water, 25° C. (neat, from Example 11)): 56400 µg/mL (≈ 179 mM)
solubility ([4]; diethylene glycol monoethyl ether (DEGEE), neat solvent, organic solvent or mixture, Diethylene glycol monoethyl ether 100% solvent, 0% water, 25° C. (neat, from Example 11)): 41800 µg/mL (≈ 132 mM)

Reference: patent publication US8609651B2, “Pharmaceutical compositions of benzodiazepines and method of use thereof” (Jazz Pharmaceuticals, Inc., priority 2006, dated 2013)
